Test results published in publication PMC11012124, “Synthesis of Novel Triazine-Based Chalcones and 8,9-dihydro-7H-pyrimido[4,5-b][1,4]diazepines as Potential Leads in the Search of Anticancer, Antibacterial and Antifungal Agents” (International Journal of Molecular Sciences, 2024).

Legend:
HT29 = experiment: cells; conditions: Homo sapiens, HT-29, 48 h; for CC50: read-out: LC50
SNB-75 = experiment: cells; conditions: Homo sapiens, SNB-75, 48 h; for CC50: read-out: LC50
TK-10 = experiment: cells; conditions: Homo sapiens, TK-10, 48 h; for CC50: read-out: LC50
HCT-15 = experiment: cells; conditions: Homo sapiens, HCT-15, 48 h; for CC50: read-out: LC50
786-0 = experiment: cells; conditions: Homo sapiens, 786-0, 48 h; for CC50: read-out: LC50
MDA-MB-468 = experiment: cells; conditions: Homo sapiens, MDA-MB-468, 48 h; for CC50: read-out: LC50
CAKI-1 = experiment: cells; conditions: Homo sapiens, CAKI-1, 48 h; for CC50: read-out: LC50
OVCAR-8 = experiment: cells; conditions: Homo sapiens, OVCAR-8, 48 h; for CC50: read-out: LC50
[1] = Hemolytic activity, spectrophotometric; assay type: cell-based, human; conditions: human, human red blood cells (huRBC), 5% hematocrit, 200 μg/mL, 37 °C
OVCAR-3 = experiment: cells; conditions: Homo sapiens, OVCAR-3, 48 h; for CC50: read-out: LC50
M14 = experiment: cells; conditions: Homo sapiens, M14, 48 h; for CC50: read-out: LC50
SK-MEL-28 = experiment: cells; conditions: Homo sapiens, SK-MEL-28, 48 h; for CC50: read-out: LC50
UACC-257 = experiment: cells; conditions: Homo sapiens, UACC-257, 48 h; for CC50: read-out: LC50
SK-OV-3 = experiment: cells; conditions: Homo sapiens, SK-OV-3, 48 h; for CC50: read-out: LC50
HS 578T = experiment: cells; conditions: Homo sapiens, 48 h; for CC50: read-out: LC50
NCI-H460 = experiment: cells; conditions: Homo sapiens, NCI-H460, 48 h; for CC50: read-out: LC50
EKVX = experiment: cells; conditions: Homo sapiens, 48 h; for CC50: read-out: LC50
OVCAR-4 = experiment: cells; conditions: Homo sapiens, OVCAR-4, 48 h; for CC50: read-out: LC50
SF-295 = experiment: cells; conditions: Homo sapiens, SF-295, 48 h; for CC50: read-out: LC50
KM12 = experiment: cells; conditions: Homo sapiens, KM12, 48 h; for CC50: read-out: LC50
RXF 393 = experiment: cells; conditions: Homo sapiens, RXF 393, 48 h
MALME-3M = experiment: cells; conditions: Homo sapiens, 48 h; for CC50: read-out: LC50
CCRF-CEM = experiment: cells; conditions: Homo sapiens, 48 h; for CC50: read-out: LC50
MCF7 = experiment: cells; conditions: Homo sapiens, MCF7, 48 h; for CC50: read-out: LC50
NCI-H322M = experiment: cells; conditions: Homo sapiens, 48 h; for CC50: read-out: LC50
SK-MEL-5 = experiment: cells; conditions: Homo sapiens, SK-MEL-5, 48 h; for CC50: read-out: LC50
K-562 = experiment: cells; conditions: Homo sapiens, K562, 48 h; for GI50: K-562, 48 h; for CC50: read-out: LC50
OVCAR-5 = experiment: cells; conditions: Homo sapiens, OVCAR-5, 48 h; for CC50: read-out: LC50
SF-268 = experiment: cells; conditions: Homo sapiens, SF-268, 48 h; for CC50: read-out: LC50
COLO 205 = experiment: cells; conditions: Homo sapiens, COLO 205, 48 h; for CC50: read-out: LC50
HL-60(TB) = experiment: cells; conditions: Homo sapiens, HL-60, 48 h; for CC50: read-out: LC50
SF-539 = experiment: cells; conditions: Homo sapiens, SF-539, 48 h; for CC50: read-out: LC50, SF-539, 48 h
UO-31 = experiment: cells; conditions: Homo sapiens, UO-31, 48 h; for CC50: read-out: LC50
HOP-62 = experiment: cells; conditions: Homo sapiens, HOP-62, 48 h; for CC50: read-out: LC50
HCC-2998 = experiment: cells; conditions: Homo sapiens, HCC 2998, 48 h; for CC50: read-out: LC50
A498 = experiment: cells; conditions: Homo sapiens, A498, 48 h; for CC50: read-out: LC50

## CN(C)c1nc(NCCNS(=O)(=O)c2ccc(C3=Nc4c(N)nc(N)nc4NC(c4ccc(F)cc4)C3)cc2)nc(Nc2ccc(F)cc2)n1 (centres unmarked) [31f]
HT29
  GI50: 3.88 µM
  CC50: > 100 µM
SNB-75
  GI50: 2.53 µM
  CC50: 74 µM
TK-10
  GI50: > 100 µM
  CC50: > 100 µM
HCT-15
  GI50: > 100 µM
  CC50: > 100 µM
786-0
  GI50: 4.77 µM
  CC50: > 100 µM
MDA-MB-468
  GI50: 2.15 µM
  CC50: 6.24 µM
CAKI-1
  GI50: 6.5 µM
  CC50: > 100 µM
OVCAR-8
  GI50: 12 µM
  CC50: > 100 µM
[1]
  hemolysis at 24 h, 200 µg/mL: 2.4%
OVCAR-3
  GI50: 8.09 µM
  CC50: > 100 µM
M14
  GI50: 3.84 µM
  CC50: 25.3 µM
SK-MEL-28
  GI50: 15.7 µM
  CC50: > 100 µM
UACC-257
  GI50: 11.4 µM
  CC50: > 100 µM
SK-OV-3
  GI50: > 100 µM
  CC50: > 100 µM
HS 578T
  GI50: 5.7 µM
  CC50: > 100 µM
NCI-H460
  GI50: 4.74 µM
  CC50: > 100 µM
EKVX
  GI50: 5.17 µM
  CC50: > 100 µM
OVCAR-4
  CC50: > 100 µM
SF-295
  GI50: 6.71 µM
  CC50: > 100 µM
KM12
  GI50: 4.69 µM
  CC50: > 100 µM
RXF 393
  GI50: 2.48 µM
MALME-3M
  GI50: 6.28 µM
  CC50: > 100 µM
CCRF-CEM
  GI50: 3.99 µM
  CC50: > 100 µM
MCF7
  GI50: 3.16 µM
  CC50: 43.7 µM
NCI-H322M
  GI50: > 100 µM
  CC50: > 100 µM
SK-MEL-5
  GI50: 3.36 µM
  CC50: 14.9 µM
K-562
  GI50: 2.8 µM
  CC50: > 100 µM
OVCAR-5
  GI50: > 100 µM
  CC50: > 100 µM
SF-268
  GI50: 4.83 µM
  CC50: > 100 µM
COLO 205
  GI50: 11.8 µM
  CC50: > 100 µM
HL-60(TB)
  GI50: 3.12 µM
  CC50: > 100 µM
SF-539
  GI50: 3.89 µM
  CC50: > 100 µM
UO-31
  GI50: > 100 µM
  CC50: > 100 µM
HOP-62
  GI50: 96 µM
  CC50: > 100 µM
HCC-2998
  GI50: 4.22 µM
  CC50: > 100 µM
A498
  GI50: 22.1 µM
  CC50: > 100 µM

## CN(C)c1nc(NCCNS(=O)(=O)c2ccc(C3=Nc4c(N)nc(N)nc4NC(c4ccc(C(F)(F)F)cc4)C3)cc2)nc(Nc2ccc(F)cc2)n1 (centres unmarked) [31g]
HT29
  GI50: 4.88 µM
  CC50: 18.3 µM
SNB-75
  GI50: 2.13 µM
  CC50: 86 µM
TK-10
  GI50: > 86 µM
  CC50: > 86 µM
HCT-15
  GI50: 55.1 µM
  CC50: 86 µM
786-0
  GI50: 10.1 µM
  CC50: 39.8 µM
MDA-MB-468
  GI50: 2.67 µM
  CC50: 11.7 µM
CAKI-1
  GI50: 36.8 µM
  CC50: 86 µM
OVCAR-8
  GI50: 26.1 µM
  CC50: 86 µM
[1]
  hemolysis at 24 h, 200 µg/mL: 3%
OVCAR-3
  GI50: 11.9 µM
  CC50: 86 µM
M14
  GI50: 7.87 µM
  CC50: 86 µM
SK-MEL-28
  GI50: 15 µM
  CC50: 86 µM
UACC-257
  GI50: 23.3 µM
  CC50: 86 µM
SK-OV-3
  GI50: > 86 µM
  CC50: > 86 µM
HS 578T
  GI50: 9.03 µM
  CC50: 86 µM
NCI-H460
  GI50: 5.49 µM
  CC50: 86 µM
EKVX
  GI50: 5.52 µM
  CC50: 86 µM
OVCAR-4
  GI50: 25 µM
  CC50: 86 µM
SF-295
  GI50: 12.9 µM
  CC50: 86 µM
KM12
  GI50: 6.14 µM
  CC50: 86 µM
RXF 393
  GI50: 2.57 µM
RXF 393; read-out: LC50
  CC50: 18.8 µM
MALME-3M
  GI50: 11.3 µM
  CC50: 24.2 µM
CCRF-CEM
  GI50: 3.24 µM
  CC50: 86 µM
MCF7
  GI50: 2.87 µM
  CC50: 21 µM
NCI-H322M
  GI50: 42.5 µM
  CC50: 86 µM
SK-MEL-5
  GI50: 10.4 µM
  CC50: 21.3 µM
K-562
  GI50: 3.51 µM
  CC50: 86 µM
OVCAR-5
  GI50: 19.9 µM
  CC50: 86 µM
SF-268
  GI50: 11.2 µM
  CC50: 86 µM
COLO 205
  GI50: 9.73 µM
  CC50: 21.8 µM
HL-60(TB)
  GI50: 4.07 µM
  CC50: 86 µM
SF-539
  GI50: 6.22 µM
  CC50: 24.7 µM
UO-31
  GI50: > 86 µM
  CC50: > 86 µM
HOP-62
  GI50: 31.4 µM
  CC50: 86 µM
HCC-2998
  GI50: 4.73 µM
  CC50: 25.9 µM
A498
  GI50: 22.2 µM
  CC50: 77.4 µM
